Experimental data as given in patent US6255347A (priority 1997, dated 2001).
Entries after “also recorded” stand apart in the source; their conditions may differ.

Experiments:
NIH 3T3 cells = experiment: Foci formation assay, inhibition of PMA induced neoplastic transformation of NIH 3T3 cells; assay type: cell-based; conditions: PMA 0.02 μg/ml, 2% FBS; for inhibition of PMA induced foci formation / neoplastic transformation: 6 weeks, ibuprofen 10 or 100 μg/ml
Experimental: (§1) NIH 3T3 cells (American Type Culture Collection, Rockville, Md.) were cultured in DMEM supplemented with 10% FBS inoculated at 10^4 cells/35 […] dish. […] PMA and ibuprofen were dissolved in DMSO and stored in 5% DMSO stock solutions that were diluted a 1000-fold with culture media prior to use. […] The media containing freshly added PMA and ibuprofen were changed every 60 hours for both the foci formation assay and PKCα analysis by Western blot.
Subsequent to washing with a tris/ saline buffer, the cells were stained with a solution of 4% aqueous Giemsa stain in phosphate buffer (pH 7.0). Foci of transformed cells were then visible by eye due to their high local density and verified by under light microscopy.

PKCα = PKCα translocation in NIH 3T3 cells (subcellular fractionation, Western blot); assay type: cell-based; conditions: 10 μg/ml; for inhibition of PKCα translocation from cytosol to nuclear compartments: PMA 4 hours; for inhibition of PKCα translocation, racemate versus enantiomers: particularly 2 weeks of PMA
Experimental: as §1
(§2) The cells were washed twice with phosphate-buffered saline (PBS) at 37° C. and subsequently lysed and scraped in 1 ml ice-cold protein lysis buffer (20 mM Tris-HCl, pH7.4, 2 mM EGTA, 2 mM EDTA, […] leupeptin and […] aprotinin) at 4° C. […] Briefly, cells were homogenized 10× in 15 ml glass homogenizer with a tight-fitting pestle and centrifuged at 900×g for 10 min. The resulting supernatant was then centrifuged at 100,000×g for 60 min to produce a nucleus-free membrane fraction (pellet) and a cytosol fraction (supernatant) for Western blots. The 900×g nuclear pellet was suspended in the 2 ml lysis buffer containing 10% sucrose and 0.1% Triton X-100 and washed twice by centrifuging at 1000×g for 10 min, then resuspended in 1 ml of the same buffer without Triton X-100 for Western blots. The purity of the fractions was monitored by light microscopy. […] The samples were stored at -70° C. until analysis.
(§3) 15 μl of human plasma, 15 μl of rat plasma, CSF or 50 μg of rat brain protein were denatured with 35 μl of sample buffer at 95° C. for 4 min. Denatured proteins were separated by 10% SDS-polyacrylamide gel electrophoresis with a 50 μg or 20 μg protein load for each sample for APPs or PKC, respectively, and electrophoretically transferred from gel to nitrocellulose membrane. […] The immunoreactive bands were developed using enhanced chemilumenescence (ECL. Amersham Life Sci., Little Chalfont, UK), following extensive washing with the blocking buffer. The PKC bands were verified in each case by competitively blocking the signal with the peptide corresponding to each of PKCs. The bands were quantitated by scanning densitometry. Quantitative comparisons were made between samples processed simultaneously on one blot.

PKC = target: T1, PKC (Rattus norvegicus, UniProt P05696); experiment: Protein kinase C activity assay (histone phosphorylation, partially purified rat brain PKC); assay type: biochemical; conditions: PMA stimulated; for concentration inhibiting PKC mediated histone phosphorylation: 2 min, 30° C.
T1 construct: Partially purified PKCα from rat brain; purchased Promega (Madison, Wis.); host or cells: rat brain (tissue enzyme, partially purified)
Experimental: The following were obtained from the Sigma Chemical Co. (St. […] Anti-PKCα antibody (affinity purified) and its C-terminal region peptide was obtained from Life Technologies (Gaithersburg, Md.). […] All other chemicals were of the highest available purity and were obtained from standard commercial sources. […] Following 2 min initial incubation at 30° C., kinase reactions were initiated by the addition of ^32 P-γ-ATP and enzyme and continued at 30° C. for 2 min. Control incubations contained all assay components except enzyme and ibuprofen. […] All samples were carried out in duplicate.

APPs [1] = conditions: 10 mg/kg P.O. bid, 7 days
Experimental: as §3
(§4) Male Sprague-Dawley rats (12 month) were obtained from Harlan-Sprague-Dawley, Inc. (Indianapolis, Ind.) and housed under controlled conditions of temperature humidity and light/dark cycle. […] Rat blood, brain and 50 μl of cerebrospinal fluid were collected and stored at -70° C. for APPs and PKC analysis by Western blotting. Rat stomach and duodenum were collected for the quantitation of gastroduodenal lesions.
The cytosolic and membrane fractions were obtained by differential centrifugation of rat brain tissue treated by ibuprofen. […]

APPs [2] = conditions: 10 mg/kg P.O. bid, 7 days; n = 4 mean ± S.D.
Experimental: as §2, §3
Male Sprague-Dawley rats (12 month) were obtained from Harlan-Sprague-Dawley, Inc. (Indianapolis, Ind.) and housed under controlled conditions of temperature humidity and light/dark cycle. […] Rat stomach and duodenum were collected for the quantitation of gastroduodenal lesions. […]

PKC .xi. = conditions: cytosolic or membranous fractions
Experimental: as §2, §3, §4
(§5) Following separation of cytosolic or membrane proteins of rat brain protein by SDS-polyacrylamide gel electrophoresis, the proteins were transfer to nitrocellular membranes. The membranes were then probed for presence of PKCs using polyclonal antibodies against PKC α, βII, θ, ε, .xi., or γ.

PKC α = test system: PKC α
Experimental: as §2, §3, §4, §5

PKC βII = test system: PKC βII
Experimental: as §2, §3, §4, §5

PKC γ = conditions: cytosolic or membranous fractions
Experimental: as §2, §3, §4, §5

PKC ε = conditions: cytosolic or membranous fractions
Experimental: as §2, §3, §4, §5

PKC θ = conditions: cytosolic or membranous fractions
Experimental: as §2, §3, §4, §5

rat stomach and duodenum = experiment: Gastric ulcer index / gastroduodenal lesions in rat; assay type: in vivo; conditions: rat, in vivo
Experimental: as §4
The rat stomach and first 12 cm of the duodenum were opened and carefully shed with saline to remove any residual debris and fixed in 10% buffered formaldehyde. Tissues were examined macroscopically (×10) for lesions and hemorrhages. The evaluation of lesions or hemorrhages was based on the ulcer index (UI) reported by Leyck et al. (1985) and expressed as the sum total of lesions per treatment. The scoring units used ranged from 0 to 5, where zero represents no macroscopically visible lesions; 1 represents one to three small ulcers less than 4 mm; 2 represents more than three small ulcers; 3 represents ulcer hemorrhages with several small ulcers; 4 represents large (>4 mm) ulcers; 5 indicates tissue perforation.

APPs (105 kDa) = APPs (105 kDa) in human blood; assay type: in vivo
Experimental: as §3
Food intake was restricted until 4 h post dose. […] Over the next 6 days, ibuprofen was administered as 800 mg t.i.d. and subjects were instructed to return on day 3 and 5 for a single blood draw. […] Serum samples were stoiced -20° C. prior to analysis.

[3] = test system: APPs secretion by NIH 3T3 cell lines; conditions: 50 μM; for Density of APPs band: 20 h culture, n = 2, mean ± S.D.
risk of AD = conditions: in vivo; cited from earlier work
[4] = Chiral inversion of R- to S-ibuprofen in culture (HPLC); assay type: in vitro ADME; conditions: NIH 3T3 culture
Experimental: The concentration of the enantiomers of ibuprofen in cell culture media was determined by an HPLC procedure previously described for the enantiomers of ketoprofen (Grubb et al., 1996). The HPLC column consisted of a 5 μm (S,S)-Whelk-O1 stationary phase (250 mm×4.6 mm; Regis Technologies, Morton Grove, Ill.) eluted with a mobile phase of hexane/isopropyl alcohol/acetic acid (98/2/0.05) flowing at 0.8 ml/ min. […] Quantitation was achieved using peak area ratios with R-flurbiprofen as internal standard and ultraviolet absorbance at 254 nm. The limit of quantitation was set at 100 ng/ml.

cyclooxygenase = conditions: cited from earlier work
AD progression = conditions: 6-month, double-blind, placebo-controlled; cited from earlier work
animal tumors = conditions: in vivo; cited from earlier work
APP = conditions: via activation of PKC; cited from earlier work
[5] = membrane fraction, 10 mg/kg bid 7 days, n = 4 mean ± S.D.

Structure (SMILES): CC(C)Cc1ccc(C(C)C(=O)O)cc1 (racemic) [RS-ibuprofen]
- inhibition of PMA induced foci formation / neoplastic transformation (NIH 3T3 cells; listed as Racemic ibuprofen): dramatically decreased
- inhibition of PMA induced foci formation / neoplastic transformation (NIH 3T3 cells; listed as racemic ibuprofen): inhibit the neoplastic transformation; also recorded: substantially inhibited
- PKCα detectable in the membrane fraction (PKCα; 2 weeks of PMA): detectable in the membrane fraction
- inhibition of PKCα translocation from cytosol to nuclear compartments (PKCα): completely blocked
- inhibition of PKCα translocation, racemate versus enantiomers (PKCα): less potent than either of the enantiomers
- concentration inhibiting PKC mediated histone phosphorylation (PKC): 2 µM
- APPs secretion in rat CSF (in words) (APPs [1]): dramatically increased APPs secretion
- Density of APP Bands, CSF (APPs [1]; n = 4 mean ± S.D.): 13.63 ± 6.56
- Density of APP Bands, Cytosol (APPs [2]): 9.32 ± 5.35
- effect on PKC .xi. content (PKC .xi.): did not show a dramatic effect
- rat brain PKC α content (in words) (PKC α; 7 days of treatment): not significantly
- Density of PKC α Bands (PKC α; [5]): 13.61 ± 5.15
- rat brain PKC βII content (in words) (PKC βII; 7 days of treatment): not significantly
- Density of PKC βII Bands (PKC βII; [5]): 8.46 ± 3.68
- effect on PKC γ content (PKC γ): did not show a dramatic effect
- effect on PKC ε content (PKC ε): did not show a dramatic effect
- effect on PKC θ content (PKC θ): did not show a dramatic effect
- gastropathy (in words) (rat stomach and duodenum): induced serious gastric ulcers and hemorrhage
- human blood APPs (105 kDa) (APPs (105 kDa); 1st dose (800 mg), 0 hour (before dose), n = 4, mean ± S.D.): 1.95
- duration of increased APPs (105 kDa) secretion (APPs (105 kDa); after 7 days dosing, 800 mg t.i.d. oral): 14 days
- human blood APPs (105 kDa) (APPs (105 kDa); post 1st dose (800 mg), 1 hour, n = 4, mean ± S.D.): 3.64
- human blood APPs (105 kDa) (APPs (105 kDa); post 1st dose (800 mg), 3 hours, n = 4, mean ± S.D.): 3.22
- human blood APPs (105 kDa) (APPs (105 kDa); post 7 days dose (800 mg, tid), 1 hour, n = 4, mean ± S.D.): 4.57
- human blood APPs (105 kDa) (APPs (105 kDa); post 7 days dose (800 mg, tid), 1 day, n = 4, mean ± S.D.): 6.15
- human blood APPs (105 kDa) (APPs (105 kDa); post 7 days dose (800 mg, tid), 2 days, ND = Not detectable): 4.77
- human blood APPs (105 kDa) (APPs (105 kDa); post 7 days dose (800 mg, tid), 3 days, ND = Not detectable): 4.33
- human blood APPs (105 kDa) (APPs (105 kDa); post 7 days dose (800 mg, tid), 4 days, ND = Not detectable): 3.37
- human blood APPs (105 kDa) (APPs (105 kDa); post 7 days dose (800 mg, tid), 14 days, ND = Not detectable): 3.77
- duration of increased APPs (105 kDa) secretion (APPs (105 kDa); single oral 800 mg dose): 1 days
- Density of APPs band [3]: 6.073 ± 0.55

Structure (SMILES): CC(=O)Oc1ccccc1C(=O)O [Aspirin]
- APPs secretion (in words) ([3]; 20 h): failed to show an increased secretion of APPs
- Density of APPs band [3]: 2.92 ± 0.43
- association with decreased risk of AD (risk of AD): not associated

Structure (SMILES): CC(C)Cc1ccc([C@@H](C)C(=O)O)cc1 [R-ibuprofen]
- inhibition of foci formation, enantiomers compared to racemate (NIH 3T3 cells): more pronounced than that of the racemate; also recorded: more effective than the racemic mixture
- inhibition of PMA induced foci formation / neoplastic transformation (NIH 3T3 cells): dramatically decreased; also recorded: inhibit the neoplastic transformation; also recorded: substantially inhibited
- inhibition of PKCα translocation compared to antipode (PKCα; 4 hours PMA): more effective than its antipode
- inhibition of PKCα translocation from cytosol to nuclear compartments (PKCα): clearly modulated the time dependent intracellular redistribution of PKCα
- inhibition of PKCα translocation, racemate versus enantiomers (PKCα): more effective than the racemic mixture
- concentration inhibiting PKC mediated histone phosphorylation (PKC): 1 µM
- inhibition at 20 µM (PKC; read-out: maximal inhibition of PKC activity, at 20 μM): 53%
- inversion of R- to S-ibuprofen [4]: No inversion of R- to S-ibuprofen was detectable; also recorded: did not occur
- gastric ulcers, incidence (rat stomach and duodenum): one small gastric ulcer in 2 out of 4 rats
- ulcers larger than 4 mm (rat stomach and duodenum): no ulcer larger than 4 mm
- capability to inhibit cyclooxygenase (in words) (cyclooxygenase): very weak capability to inhibit cyclooxygenase

Structure (SMILES): CC(=O)Nc1ccc(O)cc1 [acetaminophen]
- association with decreased risk of AD (risk of AD): not associated

Structure (SMILES): COc1ccc2c(c1)c(CC(=O)O)c(C)n2C(=O)c1ccc(Cl)cc1 [indomethacin]
- slowing AD progression (AD progression): very effective in slowing AD progression

Structure (SMILES): N[C@H](Cc1ccc(N(CCCl)CCCl)cc1)C(=O)O [medphalan]
- activity against certain animal tumors versus melphalan (animal tumors): less active

Structure (SMILES): CCCCCCCCCCCCCC(=O)O[C@@H]1[C@@H](C)[C@@]2(O)[C@@H](C=C(CO)C[C@]3(O)C(=O)C(C)=C[C@@H]23)[C@@H]2C(C)(C)[C@]12OC(C)=O [phorbol ester]
- formation of APPs (APP): increase the formation of APPs
- production of amyloidogenic fragments containing Aβ and Aβ (APP): reduce the production
